pEC50: −log10 of the molar value.
How the values were obtained:
[1] = system: TFEB; experiment: TFEB nuclear translocation assay; assay type: cell-based; details: Homo sapiens; HeLa wt or HeLa TRPML1 KO cells, treated for 2 hrs; ratio of nuclear to ring-region TFEB intensity
How it was run: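 HeLa wild-type or TRPML1 KO cells treated 2 h with compound at 37 °C, PFA-fixed, immunostained for TFEB (Alexa 488) with Hoechst nuclei. Imaged at ×20, four fields/well. Value is ratio of nuclear to perinuclear-ring TFEB intensity, with nuclei counts.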

[2] = system: THP-1 cells; experiment: Lamp1 lysosomal exocytosis assay; assay type: cell-based; details: Homo sapiens, 55 min, 55 min incubation, top dose 20 μM
How it was run: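 THP-1 cells (1e5/well) exposed to a 7-point 3-fold compound series, top final 20 μM, for 55 min at 37°C. Surface Lamp1 then stained with Lamp1-PE on ice in buffer containing 80 μM Dynasore, and read by flow cytometry as PE geometric mean on live, sytox-negative singlets.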

| SMILES | pEC50 [1] | pEC50 [2] |
| --- | --- | --- |
| CN1CCC2(CC1)CN(S(=O)(=O)c1ccc(C(F)F)cc1)c1ccccc12 [Compound I-83] | ≤ 5.00 | ≤ 5.30 |
| CN(Cc1ccccc1)C(=O)N1CCC2(CC1)CN(S(=O)(=O)c1ccc(C(F)F)cc1)c1ccccc12 [Compound I-178, N-benzyl-1-((4-(difluoromethyl)phenyl)sulfonyl)-N-methylspiro[indoline-3,4′-piperidine]-1′-carboxamide] | 5.10 to 5.70 | 6.00 to 6.29 |
| O=S(=O)(c1ccc(C2CC2(F)F)cc1)N1CC2(CCCC2)c2ccccc21 (stereo not drawn) [Compound I-48, 1′-[4-(2,2-difluorocyclopropyl)benzenesulfonyl]-1′,2′-dihydrospiro[cyclopentane-1,3′-indole]] | 5.10 to 5.70 | ≤ 5.30 |
| O=S(=O)(c1ccc(C(F)F)cc1)N1CC2(CCN(CC(F)(F)F)C2)c2ccccc21 (stereo not drawn) [Compound I-92, 1-[4-(difluoromethyl)benzenesulfonyl]-1′-(2,2,2-trifluoroethyl)-1,2-dihydrospiro[indole-3,3′-pyrrolidine]] | 5.10 to 5.70 | ≤ 5.30 |
| CN(C)S(=O)(=O)c1ccc(S(=O)(=O)N2CCC3(CCN(CC(F)(F)F)CC3)c3ccccc32)cc1 [Compound I-126, N,N-dimethyl-4-((1-(2,2,2-trifluoroethyl)-2′,3′-dihydro-1′H-spiro[piperidine-4,4′-quinolin]-1′-yl)sulfonyl)benzenesulfonamide] | ≥ 5.70 | ≤ 5.30 |
| O=C(Nc1ccc2c(c1)OCO2)N1CCC2(CC1)CN(S(=O)(=O)c1ccc(C(F)F)cc1)c1ccccc12 [Compound I-220, N-(benzo[d][1,3]dioxol-5-yl)-1-((4-(difluoromethyl)phenyl)sulfonyl)spiro[indoline-3,4′-piperidine]-1′-carboxamide] | 5.10 to 5.70 | ≤ 5.30 |
| CC(C)C(=O)N1CC2(CCN(C(=O)OCc3ccccc3)CC2)c2ccccc21 [Compound I-190, benzyl 1-(2-methylpropanoyl)-1,2-dihydrospiro[indole-3,4′-piperidine]-1′-carboxylate] | ≤ 5.00 | ≤ 5.30 |
| Cc1nn2c(c1C)N(S(=O)(=O)c1ccc(S(=O)(=O)N(C)C)cc1)CC21CCCCC1 [Compound I-154, 4-({6′,7′-dimethyl-1′,2′-dihydrospiro[cyclohexane-1,3′-pyrazolo[1,5-a]imidazol]-1′-yl}sulfonyl)-N,N-dimethylbenzene-1-sulfonamide] | ≤ 5.00 | ≤ 5.30 |
| Cc1cccc(S(=O)(=O)N2CC3(CCCC3)c3ccccc32)c1 [Compound I-74, 1′-(3-methylbenzenesulfonyl)-1′,2′-dihydrospiro[cyclopentane-1,3′-indole]] | 5.10 to 5.70 | ≤ 5.30 |
| CN(C)S(=O)(=O)c1ccc(S(=O)(=O)N2CC3(CCN(CC(F)(F)F)CC3)c3ccccc32)cc1 [Compound I-87, N,N-dimethyl-4-{[1′-(2,2,2-trifluoroethyl)-1,2-dihydrospiro[indole-3,4′-piperidin]-1-yl]sulfonyl}benzene-1-sulfonamide] | ≥ 5.70 | 6.00 to 6.29 |
| O=S(=O)(c1ccc(C(F)F)cc1)N1CC2(CCN(Cc3ccncc3)CC2)c2ccccc21 [Compound I-166, 1-[4-(difluoromethyl)benzenesulfonyl]-1′-[(pyridin-4-yl)methyl]-1,2-dihydrospiro[indole-3,4′-piperidine]] | ≥ 5.70 | ≤ 5.30 |
| O=S(=O)(c1ccc2c(c1)CCC(C(F)F)O2)N1CC2(CCCC2)c2ccccc21 (stereo not drawn) [Compound I-35, 1′-{[2-(difluoromethyl)-3,4-dihydro-2H-1-benzopyran-6-yl]sulfonyl}-1′,2′-dihydrospiro[cyclopentane-1,3′-indole]] | 5.10 to 5.70 | ≤ 5.30 |
| CN(C)S(=O)(=O)c1ccc(S(=O)(=O)N2CC3(CCN(CC(C)(F)F)CC3)c3ccccc32)cc1 [Compound I-97, 4-{[1′-(2,2-difluoropropyl)-1,2-dihydrospiro[indole-3,4′-piperidin]-1-yl]sulfonyl}-N,N-dimethylbenzene-1-sulfonamide] | ≥ 5.70 | 6.00 to 6.29 |
| O=C(C1CC1)N1CCC2(CC1)CN(S(=O)(=O)c1ccc(C(F)F)cc1)c1ccccc12 [Compound I-162, 1′-cyclopropanecarbonyl-1-[4-(difluoromethyl)benzenesulfonyl]-1,2-dihydrospiro[indole-3,4′-piperidine]] | ≤ 5.00 | ≤ 5.30 |
| CC1(C)COc2ccc(S(=O)(=O)N3CC4(CCCC4)c4ccccc43)cc21 [Compound I-5, 1′-[(3,3-dimethyl-2,3-dihydro-1-benzofuran-5-yl)sulfonyl]-1′,2′-dihydrospiro[cyclopentane-1,3′-indole]] | ≥ 5.70 | ≤ 5.30 |

The remaining lines, values ahead:

| pEC50 [1] | pEC50 [2] | SMILES |
| --- | --- | --- |
| ≥ 5.70 | ≤ 5.30 | O=C(Oc1ccccc1)N1CCC2(CC1)CN(S(=O)(=O)c1ccc(C(F)F)cc1)c1ccccc12 [Compound I-169, phenyl 1-((4-(difluoromethyl)phenyl)sulfonyl)spiro[indoline-3,4′-piperidine]-1′-carboxylate] |
| ≥ 5.70 | ≥ 6.30 | CN(C)S(=O)(=O)c1ccc(S(=O)(=O)N2CC3(CCCC3)c3c(F)cccc32)cc1 [Compound I-95, 4-({4′-fluoro-1′,2′-dihydrospiro[cyclopentane-1,3′-indol]-1′-yl}sulfonyl)-N,N-dimethylbenzene-1-sulfonamide] |
| ≥ 5.70 | ≤ 5.30 | O=C(OCc1ccccc1)N1CCC2(CC1)CN(S(=O)(=O)c1ccc(C3CC3)cc1)c1ccccc12 [Compound I-188, benzyl 1-((4-cyclopropylphenyl)sulfonyl)spiro[indoline-3,4′-piperidine]-1′-carboxylate] |
| ≥ 5.70 | ≤ 5.30 | O=C(OCc1ccccc1)N1CCC2(CC1)CN(S(=O)(=O)Cc1ccccc1)c1ccccc12 [Compound I-80, benzyl 1-(benzylsulfonyl)spiro[indoline-3,4′-piperidine]-1′-carboxylate] |
| ≥ 5.70 | ≤ 5.30 | CC1(C)COc2ccc(S(=O)(=O)N3CC4(CCCC4)c4c(F)cccc43)cc21 [Compound I-100, 1′-[(3,3-dimethyl-2,3-dihydro-1-benzofuran-5-yl)sulfonyl]-4′-fluoro-1′,2′-dihydrospiro[cyclopentane-1,3′-indole]] |
| ≥ 5.70 | ≤ 5.30 | O=C(NC1COc2ccccc2C1)N1CCC2(CC1)CN(S(=O)(=O)c1ccc(C(F)F)cc1)c1ccccc12 (stereo not drawn) [Compound I-222, N-(chroman-3-yl)-1-((4-(difluoromethyl)phenyl)sulfonyl)spiro[indoline-3,4′-piperidine]-1′-carboxamide] |
| ≥ 5.70 | ≤ 5.30 | O=C(Nc1ccccc1)C1CCC2(CC1)CN(S(=O)(=O)c1ccc(C(F)F)cc1)c1ccccc12 (stereo not drawn) [Compound I-230, 1′-((4-(difluoromethyl)phenyl)sulfonyl)-N-phenylspiro[cyclohexane-1,3′-indoline]-4-carboxamide] |
| ≥ 5.70 | ≤ 5.30 | O=C(OCc1ccccc1)N1CCC2(CC1)CN(S(=O)(=O)c1ccc3c(c1)CCS3(=O)=O)c1ccccc12 [Compound I-182, benzyl 1-((1,1-dioxido-2,3-dihydrobenzo[b]thiophen-5-yl)sulfonyl)spiro[indoline-3,4′-piperidine]-1′-carboxylate] |
| ≥ 5.70 | 6.00 to 6.29 | CN(C)S(=N)(=O)c1ccc(S(=O)(=O)N2CC3(CCCCC3)c3ccccc32)cc1 (stereo not drawn) [Compound I-129, N,N-dimethyl-4-(spiro[cyclohexane-1,3′-indolin]-1′-ylsulfonyl)benzenesulfonimidamide] |
| ≥ 5.70 | ≤ 5.30 | Cc1cnc2c(c1)N(S(=O)(=O)c1ccc(S(=N)(=O)N(C)C)cc1)CC21CCCCC1 (stereo not drawn) [Compound I-157, N,N-dimethyl-4-({6′-methyl-1′,2′-dihydrospiro[cyclohexane-1,3′-pyrrolo[3,2-b]pyridin]-1′-yl}sulfonyl)benzene-1-sulfonoimidamide] |
| ≥ 5.70 | ≤ 5.30 | CN(Cc1ccccc1)C(=O)C1CCC2(CC1)CN(S(=O)(=O)c1ccc(C(F)F)cc1)c1ccccc12 (stereo not drawn) [Compound I-235, N-benzyl-1′-((4-(difluoromethyl)phenyl)sulfonyl)-N-methylspiro[cyclohexane-1,3′-indoline]-4-carboxamide] |
| ≥ 5.70 | ≥ 6.30 | O=C(OCc1ccccc1)N1CCC2(CC1)CN(S(=O)(=O)c1ccc(C(F)F)cc1)c1cccnc12 [Compound I-134, benzyl 1′-[4-(difluoromethyl)benzenesulfonyl]-1′,2′-dihydrospiro[piperidine-4,3′-pyrrolo[3,2-b]pyridine]-1-carboxylate] |

Source: patent US20230416262A1, “TRPML MODULATORS” (Casma Therapeutics, Inc., priority 2020, published 2023)
